Assay results from patent publication US5726159A, “Antithrombotic agents” (Eli Lilly and Company, priority 1995, dated 1998).
Structures can show the parent of a compound that is named as a salt.

How the values were obtained:
Type in all cases: biochemical
Settings in all cases: concentration required to double the clotting time
Human plasma [1] = test: Human plasma anticoagulation, prothrombin time (PT)
Protocol: (§1) Dog plasma and rat plasma is obtained from conscious mixed-breed hounds (either sex, Hazelton-LRE, Kalamazoo, Mich., U.S.A.) or from anesthetized male Sprague-Dawley rats (Harlan Sprague-Dawley, Inc., Indianapolis, Ind., U.S.A.) by venipuncture into 3.8 percent citrate. Fibrinogen is prepared from in-date ACD human blood as the fraction I-2 according to previous procedures and specifications. […] Human fibrinogen is also purchased as 98 percent pure/plasmin free from American Diagnostica, Greenwich, Conn. Coagulation reagents ACTIN, Thromboplastin, and Human plasma are from Baxter Healthcare Corp., Dade Division, Miami, Fla. Bovine thrombin from Parke-Davis ([…], Mich.) is used for coagulation assays in plasma.
(§2) Coagulation assay procedures are as previously described. […] A CoAScreener coagulation instrument (American LABor, Inc.) is used for all coagulation assay measurements. The prothrombin time (PT) is measured by adding 0.05 mL saline and 0.05 mL Thromboplastin-C reagent to 0.05 mL test plasma. The activated partial thromboplastin time (APTT) is measured by incubation of 0.05 mL test plasma with 0.05 mL Actin reagent for 120 seconds followed by 0.05 mL CaCl2 (0.02M). The thrombin time (TT) is measured by adding 0.05 mL saline and 0.05 mL thrombin (10 NIH units/mL) to 0.05 mL test plasma. The compounds of Formula I are added to human or animal plasma over a wide range of concentrations to determine prolongation effects on the APTT, PT, and TT assays. Linear extrapolations are performed to estimate the concentrations required to double the clotting time for each assay.

Human plasma [2] = test: Human plasma anticoagulation, thrombin time (TT)
Protocol: as §1, §2

Human plasma [3] = test: Human plasma anticoagulation, activated partial thromboplastin time (APTT)
Protocol: as §1, §2

Compound	2x Clotting time PT (Human plasma [1])	2x Clotting time TT (Human plasma [2])	2x Clotting time APTT (Human plasma [3])
1-Piq-Pro-p-NHCH2 C6 H4 C(NH)NH2.2HCl [Example 18]	170 ng/mL	7 ng/mL	79 ng/mL
N=C(N)NC/C=C/CNC(=O)[C@@H]1CCCN1C(=O)[C@H](N)Cc1ccccc1 (relative stereo) [Example 8, D-Phe-Pro-NHCH2 -trans-CH=CHCH2 NHC(NH)NH2.HCl]		130 ng/mL	
NC[C@H]1CC[C@H](CNC(=O)[C@@H]2CCCN2C(=O)[C@H](N)Cc2ccccc2)CC1 (relative stereo) [Example 12, D-Phe-Pro-NHCH2 -trans-4-(aminomethyl)cyclohexane.HCl]		1,700 ng/mL	
CCS(=O)(=O)N[C@H](CC1CCCCC1)C(=O)N1CCC[C@H]1C(=O)NCCCCNC(=N)N [Example 2, EtSO2 -D-Cha-Pro-Agm.HCl]		170 ng/mL	
CCOC(=O)N[C@H](Cc1ccccc1)C(=O)N1CCC[C@H]1C(=O)NCCCCNC(=N)N [Example 3, EtOCO-D-Phe-Pro-Agm.HCl]		590 ng/mL	
N=C(N)NCCCCCCNC(=O)[C@@H]1CCCN1C(=O)[C@H](N)Cc1ccccc1 [Example 5, D-Phe-Pro-NH(CH2)6 NHC(NH)NH2.HCl]		30,000 ng/mL	
N=C(N)NCCCNC(=O)[C@@H]1CCCN1C(=O)[C@H](N)Cc1ccccc1 [Example 7, D-Phe-Pro-NH(CH2)3 NHC(NH)NH2.HCl]		490 ng/mL	
N=C(N)NCc1ccc(CNC(=O)[C@@H]2CCCN2C(=O)[C@H](N)Cc2ccccc2)cc1 [Example 9, D-Phe-Pro-p-NHCH2 -C6 H4 CH2 NHC(NH)NH2.2TFA]		> 91,000 ng/mL	
NCc1ccc(CNC(=O)[C@@H]2CCCN2C(=O)[C@H](N)Cc2ccccc2)cc1 [Example 10, D-Phe-Pro-p-NHCH2 C6 H4 CH2 NH2.HCl]		420 ng/mL	
NCc1cccc(CNC(=O)[C@@H]2CCCN2C(=O)[C@H](N)Cc2ccccc2)c1 [Example 11, D-Phe-Pro-m-NHCH2 C6 H4 CH2 NH2.HCl]		8,800 ng/mL	
Nc1ccc(CNC(=O)[C@@H]2CCCN2C(=O)[C@H](N)Cc2ccccc2)cc1 [Example 13, D-Phe-Pro-p-NHCH2 C6 H4 NH2.HCl]		660 ng/mL	
Nc1ccc(CCNC(=O)[C@@H]2CCCN2C(=O)[C@H](N)Cc2ccccc2)cc1 [Example 14, D-Phe-Pro-p-NHCH2 CH2 C6 H4 NH2.HCl]		21,000 ng/mL	
N=C(N)c1cccc(CNC(=O)[C@@H]2CCCN2C(=O)[C@H](N)Cc2ccccc2)c1 [Example 16, D-Phe-Pro-m-NHCH2 C6 H4 C(NH)NH2.0.75HCl]	8,500 ng/mL	650 ng/mL	8,600 ng/mL
N=C(N)c1ccc(CNC(=O)[C@@H]2CCCN2C(=O)[C@H]2C[C@H]3CCCC[C@H]3CN2)cc1 [Example 19, D-3-Piq-Pro-p-NHCH2 C6 H4 C(NH)NH2.3HCl]	540 ng/mL	58 ng/mL	300 ng/mL
N=C(N)c1ccc(CNC(=O)[C@@H]2C[C@@H]3CCCC[C@@H]3N2C(=O)[C@H]2CCCCN2)cc1 [Example 20, D-hPro-Ohi-p-NHCH2 C6 H4 C(NH)NH2.3HCl]	600 ng/mL	62 ng/mL	550 ng/mL
CCS(=O)(=O)N[C@H](Cc1ccccc1)C(=O)N1CCC[C@H]1C(=O)NCc1cccc(C(=N)N)c1 [Example 24, EtSO2 -D-Phe-Pro-m-NHCH2 -C6 H4 C(=NH)NH2.HCl]	25,000 ng/mL	1,000 ng/mL	25,900 ng/mL
CCS(=O)(=O)N[C@H](Cc1ccccc1)C(=O)N1CCC[C@H]1C(=O)NCCc1cccc(C(=N)N)c1 [Example 27, EtSO2 -D-Phe-Pro-m-NHCH2 CH2 -C6 H4 C(=NH)NH2.HCl]	27,000 ng/mL	1,940 ng/mL	27,800 ng/mL

Compound	2x Clotting time PT (Human plasma [1])	2x Clotting time TT (Human plasma [2])	2x Clotting time APTT (Human plasma [3])
N=C(N)c1ccc(CCNC(=O)[C@@H]2CCCN2C(=O)[C@@H]2NCC[C@@H]3CCCC[C@@H]32)cc1 [Example 28, 1-Piq-Pro-p-NHCH2 CH2 -C6 H4 C(=NH)NH2.2HCl]	8,300 ng/mL	520 ng/mL	8,100 ng/mL
N=C(N)c1cccc(CCNC(=O)[C@@H]2CCCN2C(=O)[C@@H]2NCC[C@@H]3CCCC[C@@H]32)c1 [Example 29, 1-Piq-Pro-m-NHCH2 CH2 -C6 H4 C(=NH)NH2.2HCl]	15,800 ng/mL	750 ng/mL	9,800 ng/mL
CCS(=O)(=O)N[C@H](Cc1ccccc1)C(=O)N1CCC[C@H]1C(=O)NCCCc1ccc(C(=N)N)cc1 [Example 30, EtSO2 -D-Phe-Pro-p-NHCH2 CH2 CH2 -C6 H4 C(=NH)NH2.HCl]	14,400 ng/mL	1,000 ng/mL	14,000 ng/mL
CCS(=O)(=O)N[C@H](Cc1ccccc1)C(=O)N1CCC[C@H]1C(=O)NCCCc1cccc(C(=N)N)c1 [Example 31, EtSO2 -D-Phe-Pro-m-NHCH2 CH2 CH2 -C6 H4 C(=NH)NH2.HCl]	30,000 ng/mL	10,800 ng/mL	34,500 ng/mL
N=C(N)c1cccc(CCCNC(=O)[C@@H]2CCCN2C(=O)[C@@H]2NCC[C@@H]3CCCC[C@@H]32)c1 [Example 33, 1-Piq-Pro-m-NHCH2 CH2 CH2 -C6 H4 C(=NH)NH2.HCl]	70,900 ng/mL	18,900 ng/mL	59,300 ng/mL
CCS(=O)(=O)N[C@H](Cc1ccccc1)C(=O)N1CCC[C@H]1C(=O)NCCc1ccc(NC(=N)N)cc1 [Example 35, EtSO2 -D-Phe-Pro-p-NHCH2 CH2 C6 H4 CNH(NH)NH2.HCl]	78,400 ng/mL	4,500 ng/mL	50,400 ng/mL
CCS(=O)(=O)N[C@H](Cc1ccccc1)C(=O)N1CCC[C@H]1C(=O)NCc1cccc(NC(=N)N)c1 [Example 36, EtSO2 -D-Phe-Pro-m-NHCH2 C6 H4 NHC(NH)NH2.HCl]	> 91,000 ng/mL	7,700 ng/mL	> 91,000 ng/mL
N=C(N)Nc1ccc(CNC(=O)[C@@H]2CCCN2C(=O)[C@@H]2NCC[C@@H]3CCCC[C@@H]32)cc1 [Example 38, D-1-Piq-Pro-p-NHCH2 C6 H4 NHC(NH)NH2.2HCl]	11,100 ng/mL	540 ng/mL	6,100 ng/mL
N=C(N)Nc1ccc(CCNC(=O)[C@@H]2CCCN2C(=O)[C@@H]2NCC[C@@H]3CCCC[C@@H]32)cc1 [Example 39, D-1-Piq-Pro-p-NHCH2 CH2 C6 H4 NHC(NH)NH2.2HCl]	78,600 ng/mL	5,300 ng/mL	69,200 ng/mL
N=C(N)Nc1cccc(CNC(=O)[C@@H]2CCCN2C(=O)[C@@H]2NCC[C@@H]3CCCC[C@@H]32)c1 [Example 40, D-1-Piq-Pro-m-NHCH2 C6 H4 NHC(NH)NH2.2HCl]	> 91,000 ng/mL	35,100 ng/mL	> 91,000 ng/mL
N=C(N)Nc1cccc(CCNC(=O)[C@@H]2CCCN2C(=O)[C@@H]2NCC[C@@H]3CCCC[C@@H]32)c1 [Example 41, D-1-Piq-Pro-m-NHCH2 CH2 C6 H4 NHC(NH)NH2.2HCl]	> 91,000 ng/mL	82,200 ng/mL	> 91,000 ng/mL
O=C(O)CN[C@H](CC1CCCCC1)C(=O)N1CCC[C@H]1C(=O)NCC1CCNCC1 [Example 53, HO2 CCH2 -D-Cha-Pro-4-NHCH2 -piperidine.HCl]	34,500 ng/mL	1,400 ng/mL	33,800 ng/mL
O=C(O)CN[C@H](CC1CCCCC1)C(=O)N1CCC[C@H]1C(=O)NCCC1CCNCC1 [Example 54, HO2 CCH2 -D-Cha-Pro-4-NHCH2 CH2 -piperidine.HCl]	2,200 ng/mL	140 ng/mL	3,300 ng/mL
O=C(O)CN[C@H](CC1CCCCC1)C(=O)N1CCC[C@H]1C(=O)NCCCC1CCNCC1 [Example 55, HO2 CCH2 -D-Cha-Pro-4-NHCH2 CH2 CH2 -piperidine.HCl]	> 91,000 ng/mL	55,800 ng/mL	> 91,000 ng/mL
Nc1ccc(CNC(=O)[C@@H]2CCCN2C(=O)[C@@H](CC2CCCCC2)NCC(=O)O)cc1 [Example 62, HO2 CCH2 -D-Cha-Pro-4-NHCH2 C6 H4 NH2.HCl]		54 ng/mL	
Nc1ccc(CCNC(=O)[C@@H]2CCCN2C(=O)[C@@H](CC2CCCCC2)NCC(=O)O)cc1 [Example 63, HO2 CCH2 -D-Cha-Pro-4-NHCH2 CH2 C6 H4 NH2.HCl]		680 ng/mL	
D-Phe-Pro-p-NHCH2 C6 H4 C(NH)NH2.HCl [Example 15]		9 ng/mL	89 ng/mL
